We go through 27 compounds from patent publication US8445501B2, “Substituted 7-carboxamido-pyrrolo[3,2-d]pyrimidines” (Takeda GmbH, priority 2008, dated 2013).

The assay deals with T1, human PDE5 (Homo sapiens, UniProt O76074).
T1 construct: from tissue; host or cells: platelets from fresh blood of human donors (lysate, 10,000 g supernatant)
Description: Inhibition of the type 5 phosphodiesterase (PDE5) activity, modified SPA test with platelet lysate. The conditions noted are these: PDE5 from human platelet lysate, 0.5 μM cGMP. Format: biochemical. Put shortly:
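SPA-based cGMP hydrolysis, [3H]cGMP tracer in 0.5 μM cGMP, by sonicated human platelet lysate; motapizone (1 μM) and a PDE2 inhibitor (10 nM) block other PDEs. Reaction 15 min at 37 °C after 5 min preincubation, quenched with beads containing IBMX. IC50 from concentration-effect curves.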
Compound `COCC(=O)N1CCC(NC(=O)c2c[nH]c3c(-c4cc(F)c(OC)cc4OCC4CC4)ncnc23)CC1` [Example 109, 4-(2-Cyclopropylmethoxy-5-fluoro-4-methoxy-phenyl)-5H-pyrrolo[3,2-d]pyrimidine-7-carboxylic acid [1-(2-methoxy-ethanoyl)-piperidin-4-yl]amide] showed a half-inhibitory concentration (IC50) of 0.692 nM. `CCC(=O)N1CCC(NC(=O)c2c[nH]c3c(-c4cc(F)c(OC)cc4OCC4CC4)ncnc23)CC1` [Example 110, 4-(2-Cyclopropylmethoxy-5-fluoro-4-methoxy-phenyl)-5H-pyrrolo[3,2-d]pyrimidine-7-carboxylic acid (1-propionyl-piperidin-4-yl)-amide]: inhibition was half-maximal at 0.214 nM (IC50). The compound `CCC(=O)N1CCC[C@@H](NC(=O)c2c[nH]c3c(-c4cc(F)c(OC)cc4OCC4CC4)ncnc23)C1` [Example 111, 4-(2-Cyclopropylmethoxy-5-fluoro-4-methoxy-phenyl)-5H-pyrrolo[3,2-d]pyrimidine-7-carboxylic acid ((R)-1-propionyl-piperidin-3-yl)-amide] gave an IC50 of 0.105 nM.

In the case of `COCC(=O)N1CCC[C@@H](NC(=O)c2c[nH]c3c(-c4cc(F)c(OC)cc4OCC4CC4)ncnc23)C1` [Example 112, 4-(2-Cyclopropylmethoxy-5-fluoro-4-methoxy-phenyl)-5H-pyrrolo[3,2-d]pyrimidine-7-carboxylic acid [(R)-1-(2-methoxy-ethanoyl)-piperidin-3-yl]amide], the IC50 is 0.138 nM. Consider `COc1cc(OCC2CC2)c(-c2ncnc3c(C(=O)N[C@@H]4CCCN(C(C)=O)C4)c[nH]c23)cc1F` [Example 113, 4-(2-Cyclopropylmethoxy-5-fluoro-4-methoxy-phenyl)-5H-pyrrolo[3,2-d]pyrimidine-7-carboxylic acid ((R)-1-acetyl-piperidin-3-yl)-amide], for which half-maximal inhibition (IC50) was put at 0.2 nM. For `CCC(=O)N1CCC[C@H](NC(=O)c2c[nH]c3c(-c4cc(F)c(OC)cc4OCC4CC4)ncnc23)C1` [Example 114, 4-(2-Cyclopropylmethoxy-5-fluoro-4-methoxy-phenyl)-5H-pyrrolo[3,2-d]pyrimidine-7-carboxylic acid ((S)-1-propionyl-piperidin-3-yl)-amide], the IC50 is 2.24 nM. In turn, `COCC(=O)N1CCC[C@H](NC(=O)c2c[nH]c3c(-c4cc(F)c(OC)cc4OCC4CC4)ncnc23)C1` [Example 115, 4-(2-Cyclopropylmethoxy-5-fluoro-4-methoxy-phenyl)-5H-pyrrolo[3,2-d]pyrimidine-7-carboxylic acid [(S)-1-(2-methoxy-ethanoyl)-piperidin-3-yl]amide] showed an IC50 of 3.8 nM.

`COc1cc(OCC2CC2)c(-c2ncnc3c(C(=O)N[C@H]4CCCN(C(C)=O)C4)c[nH]c23)cc1F` [Example 116, 4-(2-Cyclopropylmethoxy-5-fluoro-4-methoxy-phenyl)-5H-pyrrolo[3,2-d]pyrimidine-7-carboxylic acid ((S)-1-acetyl-piperidin-3-yl)-amide] gave an IC50 of 3.09 nM. The value for `COc1cc(OCC2CC2)c(-c2ncnc3c(C(=O)N[C@@H]4CCN(C(C)=O)C4)c[nH]c23)cc1F` [Example 117, 4-(2-Cyclopropylmethoxy-5-fluoro-4-methoxy-phenyl)-5H-pyrrolo[3,2-d]pyrimidine-7-carboxylic acid ((R)-1-acetyl-pyrrolidin-3-yl)-amide] was 1.1 nM; that for `CCC(=O)N1CC[C@@H](NC(=O)c2c[nH]c3c(-c4cc(F)c(OC)cc4OCC4CC4)ncnc23)C1` [Example 118, 4-(2-Cyclopropylmethoxy-5-fluoro-4-methoxy-phenyl)-5H-pyrrolo[3,2-d]pyrimidine-7-carboxylic acid ((R)-1-propionyl-pyrrolidin-3-yl)-amide] was 0.501 nM. The same measure for `COCC(=O)N1CC[C@@H](NC(=O)c2c[nH]c3c(-c4cc(F)c(OC)cc4OCC4CC4)ncnc23)C1` [Example 119, 4-(2-Cyclopropylmethoxy-5-fluoro-4-methoxy-phenyl)-5H-pyrrolo[3,2-d]pyrimidine-7-carboxylic acid [(R)-1-(2-methoxy-acetyl)-pyrrolidin-3-yl]amide]: 1.2 nM; for `CC(=O)N[C@H]1CC[C@H](NC(=O)c2c[nH]c3c(-c4cc(C)ccc4OCC4CC4)ncnc23)CC1` [Example 120, trans-4-(2-Cyclopropylmethoxy-5-methyl-phenyl)-5H-pyrrolo[3,2-d]pyrimidine-7-carboxylic acid (4-acetylamino-cyclohexyl)-amide]: 1.2 nM; for `COCC(=O)N[C@H]1CC[C@H](NC(=O)c2c[nH]c3c(-c4cc(C)ccc4OCC4CC4)ncnc23)CC1` [Example 121, trans-4-(2-Cyclopropylmethoxy-5-methyl-phenyl)-5H-pyrrolo[3,2-d]pyrimidine-7-carboxylic acid [4-(2-methoxy-acetylamino)-cyclohexyl]-amide]: 1.78 nM. `CCOC(=O)N[C@H]1CC[C@H](NC(=O)c2c[nH]c3c(-c4cc(C)ccc4OCC4CC4)ncnc23)CC1` [Example 122, trans-(4-{[4-(2-Cyclopropylmethoxy-5-methyl-phenyl)-5H-pyrrolo[3,2-d]pyrimidine-7-carbonyl]-amino}-cyclohexyl)-carbamic acid ethyl ester] had a half-inhibitory concentration (IC50) of 1.38 nM. Compound `CC(=O)N1CCC(NC(=O)c2c[nH]c3c(-c4cc(C)ccc4OCC4CC4)ncnc23)CC1` [Example 123, 4-(2-Cyclopropylmethoxy-5-methyl-phenyl)-5H-pyrrolo[3,2-d]pyrimidine-7-carboxylic acid (1-acetyl-piperidin-4-yl)-amide] showed a half-maximal inhibitory concentration (IC50) of 1.82 nM. The same measure for `COCC(=O)N1CCC(NC(=O)c2c[nH]c3c(-c4cc(C)ccc4OCC4CC4)ncnc23)CC1` [Example 124, 4-(2-Cyclopropylmethoxy-5-methyl-phenyl)-5H-pyrrolo[3,2-d]pyrimidine-7-carboxylic acid [1-(2-methoxy-acetyl)piperidin-4-yl]-amide]: 2.19 nM. Take `CCOC(=O)N1CCC(NC(=O)c2c[nH]c3c(-c4cc(C)ccc4OCC4CC4)ncnc23)CC1` [Example 125, 4-{[4-(2-Cyclopropylmethoxy-5-methyl-phenyl)-5H-pyrrolo[3,2-d]pyrimidine-7-carbonyl]-amino}-piperidine-1-carboxylic acid ethyl ester]: inhibition was half-maximal at 1.17 nM (IC50). The value for `CC(=O)N[C@H]1CC[C@H](NC(=O)c2c[nH]c3c(-c4c(OCC5CCC5)ccc5c4OCO5)ncnc23)CC1` [Example 126, trans-4-(5-Cyclobutylmethoxy-benzo[1,3]dioxol-4-yl)-5H-pyrrolo[3,2-d]pyrimidine-7-carboxylic acid (4-acetylamino-cyclohexyl)-amide] was 0.468 nM. `COCC(=O)N[C@H]1CC[C@H](NC(=O)c2c[nH]c3c(-c4c(OCC5CCC5)ccc5c4OCO5)ncnc23)CC1` [Example 128, trans-4-(5-Cyclobutylmethoxy-benzo[1,3]dioxol-4-yl)-5H-pyrrolo[3,2-d]pyrimidine-7-carboxylic acid [4-(2-methoxy-ethanoylamino)-cyclohexyl]-amide] gave a concentration for half-maximal inhibition (IC50) of 0.209 nM. In the case of `CC(=O)N1CCC(NC(=O)c2c[nH]c3c(-c4c(OCC5CCC5)ccc5c4OCO5)ncnc23)CC1` [Example 129, 4-(5-Cyclobutylmethoxy-benzo[1,3]dioxol-4-yl)-5H-pyrrolo[3,2-d]pyrimidine-7-carboxylic acid (1-acetyl-piperidin-4-yl)-amide], half-maximal inhibition (IC50) was put at 0.389 nM. The same measure for `O=C(NC1CCN(C(=O)C2CC2)CC1)c1c[nH]c2c(-c3c(OCC4CCC4)ccc4c3OCO4)ncnc12` [Example 130, 4-(5-Cyclobutylmethoxy-benzo[1,3]dioxol-4-yl)-5H-pyrrolo[3,2-d]pyrimidine-7-carboxylic acid [1-(1-cyclopropyl-methanoyl)-piperidin-4-yl]-amide]: 0.126 nM.

`COCC(=O)N1CCC(NC(=O)c2c[nH]c3c(-c4c(OCC5CCC5)ccc5c4OCO5)ncnc23)CC1` [Example 131, 4-(5-Cyclobutylmethoxy-benzo[1,3]dioxol-4-yl)-5H-pyrrolo[3,2-d]pyrimidine-7-carboxylic acid [1-(2-methoxy-ethanoyl)-piperidin-4-yl]amide]: half-maximal inhibition (IC50) required 0.49 nM. For `CCOC(=O)N1CCC(NC(=O)c2c[nH]c3c(-c4c(OCC5CCC5)ccc5c4OCO5)ncnc23)CC1` [Example 132, 4-({1-[4-(5-Cyclobutylmethoxy-benzo[1,3]dioxol-4-yl)-5H-pyrrolo[3,2-d]pyrimidin-7-yl]-methanoyl}-amino)-piperidine-1-carboxylic acid ethyl ester], half-maximal inhibition (IC50) required 0.295 nM.

In turn, `CCOc1ccc2c(c1-c1ncnc3c(C(=O)NC4CCN(C(=O)CC)CC4)c[nH]c13)OCO2` [Example 133, 4-(5-Ethoxy-benzo[1,3]dioxol-4-yl)-5H-pyrrolo[3,2-d]pyrimidine-7-carboxylic acid (1-propionyl-piperidin-4-yl)-amide] gave a half-inhibitory concentration (IC50) of 0.631 nM. `CCOC(=O)N1CCC(NC(=O)c2c[nH]c3c(-c4c(OCC)ccc5c4OCO5)ncnc23)CC1` [Example 134, 4-{[4-(5-Ethoxy-benzo[1,3]dioxol-4-yl)-5H-pyrrolo[3,2-d]pyrimidine-7-carbonyl]-amino}-piperidine-1-carboxylic acid ethyl ester]: half-maximal inhibition (IC50) was put at 0.347 nM.

On to `CCOc1ccc2c(c1-c1ncnc3c(C(=O)NC4CCN(C(=O)COC)CC4)c[nH]c13)OCO2` [Example 135, 4-(5-Ethoxy-benzo[1,3]dioxol-4-yl)-5H-pyrrolo[3,2-d]pyrimidine-7-carboxylic acid [1-(2-methoxy-acetyl)piperidin-4-yl]-amide], for which the half-inhibitory concentration (IC50) is 2 nM. Compound `CCOc1ccc2c(c1-c1ncnc3c(C(=O)N[C@@H]4CCN(C(=O)CC)C4)c[nH]c13)OCO2` [Example 136, 4-(5-Ethoxy-benzo[1,3]dioxol-4-yl)-5H-pyrrolo[3,2-d]pyrimidine-7-carboxylic acid ((R)-1-propionyl-pyrrolidin-3-yl)-amide] gave an IC50 of 3.72 nM.
